Results published in patent US6514942B1, “Methods and compositions for stimulating T-lymphocytes” (The Board of Regents, The University of Texas System, priority 1995, dated 2003).
Entries after “also recorded” stand apart in the source; their conditions may differ.

Assays:
Format in all cases: cell-based, human
C1R:A2 cells = assay: Ag specificity of the 41.CD8+ CTL line on peptide-pulsed targets; conditions: peptide-pulsed C1R:A2, E:T 10:1
Procedure: (§1) FIG. 2A. Ag specificity of the 41.CD8^+ CTL line. C1R:A2 cells were pre-pulsed with either HER-2 peptides or control MUC-1 peptides before being incubated with effectors. The effector to target ratio was 10:1. C1R:A1 and C1R:A3 targets were pre-pulsed with the same peptides in the same conditions as C1R:A2 cells. Results for C1R:A1 and C1R:A3 show the difference between specific lysis of targets preincubated with peptides and control C1R:A1 and C1R:A3 targets. Specific lysis of control C1R:A1 and C1R:A3 cells was less than 10% at the same E:T ratio. Shown in FIG. 2A are results after 4 hrs' incubation.
(§2) Tumor cells and fibroblasts were labeled with 200 μCi of ^51Cr (Na^51CrO4; Amersham, Arlington Heights, Ill.) for 90 min at 37° C. (Ioannides et al., 1991). Lymphoblastoid cells and HLA-A2 transfectants were labeled overnight in RPMI-FCS, then washed three times and incubated with effector cells in RPMI-FCS in an incubator with 5%. CO2 (Bednarek et al., 1991; Gammon et al., 1992). When peptide recognition was determined, targets were incubated with 25 μM of peptides overnight during ^51Cr labeling or with 10 μM peptide for 2 h at 37° C. in RPMI-FCS then washed three times before being incubated with effector cells. Separate controls for spontaneous and total lysis were made for each peptide-pulsed target (Ioannides et al., 1991; Bednarek et al., 1991; Gammon et al., 1992). After 4-5 h, 100 μl of supernatant was collected and counted. To determine maximum lysis in 20-h assays, plates were left undisturbed in the incubator and the supernatant was collected after overnight incubation. For cold target inhibition studies, C1R:A2 cells were preincubated with HER-2 or control peptides overnight, then washed and admixed with ^51Cr-labeled targets at 2:1 and 6:1 (cold:hot targets) ratios. Percentage lysis was calculated from the formula: 100×[(E−S)/(T−S)], where E is experimental release, S is release in the absence of CTL, and T is release in 2 M HCl.
These cultures were propagated and expanded by periodic cycles of restimulation with peptide-pulsed fresh autologous PBMC as antigen-presenting cells. After the fourth stimulation cells were gradually adapted to growth in RPMI-FCS by replacing 25% of the culture medium every 3 days with RPMI-FCS over a period of 2 weeks. CD3^+CD8^+CD4^− cells were isolated from bulk CTL cultures by positive selection on anti-CD8 mAb-coated culture flasks (AIS Micro CELLector, Applied Immune Sciences, Menlo Park, Calif.) as described (Letessier et al., 1991). Isolated CD8^+ cells were restimulated with HER-2 peptide-pulsed PBMC, either autologous or in some instances allogeneic that matched only HLA-A2 with the responding cells. […]

[1] = tested on: C1R:A1 cells (HLA-A1 transfectants); assay: as above
Procedure: as §1
Tumor cells and fibroblasts were labeled with 200 μCi of ^51Cr (Na^51CrO4; Amersham, Arlington Heights, Ill.) for 90 min at 37° C. (Ioannides et al., 1991). Lymphoblastoid cells and HLA-A2 transfectants were labeled overnight in RPMI-FCS, then washed three times and incubated with effector cells in RPMI-FCS in an incubator with 5%. […] When peptide recognition was determined, targets were incubated with 25 μM of peptides overnight during ^51Cr labeling or with 10 μM peptide for 2 h at 37° C. in RPMI-FCS then washed three times before being incubated with effector cells. […] After 4-5 h, 100 μl of supernatant was collected and counted. […] Percentage lysis was calculated from the formula: 100×[(E−S)/(T−S)], where E is experimental release, S is release in the absence of CTL, and T is release in 2 M HCl. […]

[2] = tested on: OVA-16 (HLA-A2+, HER-2high) ovarian tumor; assay: Cold target inhibition of OVA-16 lysis by 41.CD8+ CTL with peptide-pulsed C1R:A2 cells; conditions: cold:hot 2:1, E:T 10:1, 4- and 20-h assays
Procedure: (§3) FIG. 4A. Target specificity of the 41.CD8^+ CTL were tested for the ability to lyse 5^1Cr-labeled OVA-16 at an E:T ratio of 10:1. C1R:A2 cells (A2.1) were incubated with synthetic peptides (D125, C43, C85), washed, and used in cold target inhibition studies at a cold:hot ratio of 2:1. Cytotoxicity studies were performed for 5 hr. Results represent the mean of three determinations. The variability between samples was less than 10%. The differences between determination are statistically significant (P<0.03) as determined by Student's t test. Percentage inhibition is indicated in parentheses.
as §3, with “FIG. 4B.” for “FIG. 4A.”, “lyse ^51Cr-labeled” for “lyse 5^1Cr-labeled”, “for 20” for “for 5”
as §2
To confirm that the 41.CD8^+ CTL line recognizes epitopes on HER-2^high tumors contained on peptides used for stimulation, cold target inhibition studies were performed. […]

| Sequence | recognition by 41.CD8+ CTL line (C1R:A2 cells) | lysis of peptide pulsed versus control targets by 41.CD8+ CTL [1] | inhibition of tumor lysis by peptide-pulsed cold targets [2] |
| --- | --- | --- | --- |
| ELVSEFSRV [Peptide C84, HER-2:971-979 analog, Met(P9) substituted by Val] | recognized | failed to elicit a higher lysis of peptide pulsed than of control targets | inhibit HER-2^high tumor lysis; also recorded: specifically inhibit tumor lysis |
| RFRELVSEFSRMAR [Peptide C43, HER-2:968-981 14mer peptide] | recognized | failed to elicit a higher lysis of peptide pulsed than of control targets | inhibited the lysis of the OVA-16 tumor; also recorded: inhibit HER-2^high tumor lysis |
